US10273228B2, “Hepatitis B viral assembly effectors” (Indiana University Research and Technology Corporation, priority 2015, dated 2019)
Where two headings read alike, the source gives them in different places.

Columns and labels:
[1] = tested on: AD38 cells; assay: AD38 viability normalized to DMSO control; format: cell-based; details: 10 μM compound, vs DMSO control
Description: AD38 cells were then re-suspended with 10 mL of treatment medium and counted. Wells of a collagen coated 96-well NUNC microtiter plate were seeded at 50,000/well in 180 μL of treatment medium, and 20 μL of either 10% DMSO (Control) or a 10× solution of test compound in 10% DMSO in treatment media was added for a final compound concentration 1, 3, or 10 μM (1.0% final [DMSO]) and plates were incubated for 6 days at 37° C.

[2] = tested on: HBV viral load, AD38 cells; assay: Activity of test compounds on viral production from AD38 cells (viral load by quantitative PCR of the core sequence in supernatant); format: cell-based, Hepatitis B virus; details: 10 μM compound, 6 days at 37° C., vs DMSO control wells; for activity at 10 µM: Hepatitis B virus, 144 h, read-out: AD38 Viral Load (CpAM/DMSO %) at 10 μM
In short: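 Cells seeded at 50,000/well on collagen-coated plates and exposed for 6 days at 37 °C to compound at 1, 3 or 10 μM final (1.0% DMSO). Supernatant viral DNA measured by TaqMan qPCR of the core sequence against known standards, compared with DMSO control wells.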

Structure (SMILES)	AD38 Viability Normalized Result (CPAM/DMSO %) at 10 μM ([1]; Table 9) [%]	activity at 10 µM ([2]; Table 9) [%]	AD38 Viability Normalized Result (CPAM/DMSO %) at 10 μM ([1]; Table 6) [%]	activity at 10 µM ([2]; Table 6) [%]	AD38 Viral Load (CpAM/DMSO %) at 10 μM ([2]; Table 9) [%]
Cc1ccc(S(=O)(=O)N2CCN(c3nc(Nc4ccc(C#N)cc4)cc(-c4cncs4)n3)CC2)cc1 [Compound 1379]	110	6	–	–	–
COc1ccc(S(=O)(=O)N2CCN(c3nc(C)cc(Nc4ccc(-c5ccccc5)cc4)n3)CC2)cc1 [Compound 1201]	–	–	101	90	–
CC(C)c1cc(Oc2ccc(F)cc2)nc(N2CCN(S(=O)(=O)c3cccc(C(F)(F)F)c3)CC2)n1 [Compound 1287]	–	–	98	77	–
O=S(=O)(c1ccc(C(F)(F)F)cc1)N1CCN(c2nc(Nc3ccc(F)cc3)cc(C(F)(F)F)n2)CC1 [Compound 1391]	88	16	–	–	–
C[C@@H](Oc1ccc(S(=O)(=O)N2CCN(c3nc(Nc4ccc(F)cc4)cc(C(F)(F)F)n3)CC2)cc1)C(=O)O [Compound 1409, (R)-2-(4-((4-(4-((4-fluorophenyl)amino)-6-(trifluoromethyl)pyrimidin-2-yl)piperazin-1-yl)sulfonyl)phenoxy) propanoic acid]	108	59	–	–	–
COc1ccc(S(=O)(=O)N2CCN(c3nc(C)cc(Nc4ccc(C#N)cc4)n3)C(C)C2)cc1 (centres unmarked) [Compound 1363]	93	1	–	–	–
COc1ccc(S(=O)(=O)N2CCN(c3nc(Nc4ccc(C)cc4)cc(NC(C)C)n3)CC2)cc1 [Compound 1231]	–	–	94	45	–
CC(C)c1cc(Oc2ccc(F)cc2)nc(N2CCN(S(=O)(=O)c3ccccc3)CC2)n1 [Compound 1301]	–	–	102	63	–
Cc1ccc(Nc2cc(C)nc(N3CCN(S(=O)(=O)c4cccnc4)CC3)n2)cc1 [Compound 1133]	–	–	108	35	–
Cc1cc(Nc2ccc(C#N)cc2)nc(N2CCN(S(=O)(=O)c3ccc(OCCN(C)C)cc3)CC2)n1 [Compound 1377, 4-((2-(4-((4-(2-(dimethylamino)ethoxy)phenyl)sulfonyl)piperazin-1-yl)-6-methylpyrimidin-4-yl)amino) benzonitrile]	15	1	–	–	–
Cc1ccc(S(=O)(=O)N2CCN(c3nc(Oc4ccc(F)cc4)cc(N(C)C)n3)CC2)cc1 [Compound 1290]	–	–	105	62	–
COc1ccc(S(=O)(=O)N2CCN(c3nc(C)cc(Nc4nccs4)n3)CC2)cc1 [Compound 1233]	–	–	95	87	–
COC(=O)Cc1ccc(S(=O)(=O)N2CCN(c3nc(C)cc(Nc4ccc(F)cc4)n3)CC2)cc1 [Compound 1393, methyl 2-(4-((4-(4-((4-fluorophenyl)amino)-6-methylpyrimidin-2-yl)piperazin-1-yl)sulfonyl)phenyl) acetate]	102	–	–	–	79
CC(C)c1cc(Oc2ccc(F)cc2)nc(N2CCN(S(=O)(=O)c3ccc(F)cc3)CC2)n1 [Compound 1295]	–	–	101	84	–
O=S(=O)(c1cccc(C(F)(F)F)c1)N1CCN(c2nc(Oc3ccc(F)cc3)cc(-n3cnnc3)n2)CC1 [Compound 1309]	–	–	67	26	–
O=S(=O)(c1ccc(OCCN2CCOCC2)cc1)N1CCN(c2nc(Nc3ccc(F)cc3)cc(C(F)(F)F)n2)CC1 [Compound 1390, N-(4-fluorophenyl)-2-(4-((4-(2-morpholinoethoxy)phenyl)sulfonyl)piperazin-1-yl)-6-(trifluoromethyl) pyrimidin-4-amine]	104	1	–	–	–
CCOC(=O)COc1ccc(S(=O)(=O)N2CCN(c3nc(C)cc(Nc4ccc(F)cc4)n3)CC2)cc1 [Compound 1385, ethyl 2-(4-((4-(4-((4-fluorophenyl)amino)-6-methylpyrimidin-2-yl)piperazin-1-yl)sulfonyl)phenoxy) acetate]	94	105	–	–	–
CN(C)c1cc(Oc2ccc(F)cc2)nc(N2CCN(S(=O)(=O)c3cccc(C(F)(F)F)c3)CC2)n1 [Compound 1289]	–	–	105	55	–
COc1ccc(S(=O)(=O)N2CCN(c3nc(C)cc(Nc4ccccn4)n3)CC2)cc1 [Compound 1215]	–	–	89	93	–

Structure (SMILES)	AD38 Viability Normalized Result (CPAM/DMSO %) at 10 μM ([1]; Table 9) [%]	activity at 10 µM ([2]; Table 9) [%]	AD38 Viability Normalized Result (CPAM/DMSO %) at 10 μM ([1]; Table 6) [%]	activity at 10 µM ([2]; Table 6) [%]	AD38 Viral Load (CpAM/DMSO %) at 10 μM ([2]; Table 9) [%]
CCCOc1ccc(S(=O)(=O)N2CCN(c3nc(Nc4ccc(F)cc4)cc(C(F)(F)F)n3)CC2)cc1 [Compound 1400]	93	73	–	–	–
O=S(=O)(c1ccc(C(F)(F)F)cc1)N1CCN(c2nc(Oc3ccc(F)cc3)cc(-n3cnnc3)n2)CC1 [Compound 1308]	–	–	88	63	–
CCCCOc1ccc(S(=O)(=O)N2CCN(c3nc(Nc4ccc(F)cc4)cc(-c4nccs4)n3)CC2)cc1 [Compound 1368]	94	–	–	–	147
CCOC(=O)C(C)(C)Oc1ccc(S(=O)(=O)N2CCN(c3nc(Nc4ccc(F)cc4)cc(C(F)(F)F)n3)CC2)cc1 [Compound 1406, ethyl 2-(4-((4-(4-((4-fluorophenyl)amino)-6-(trifluoromethyl)pyrimidin-2-yl)piperazin-1-yl)sulfonyl)phenoxy)-2-methylpropanoate]	98	63	–	–	–
CCCCOc1ccc(S(=O)(=O)N2CCN(c3nc(Nc4ccc(F)cc4)cc(-c4nccs4)n3)CC2)cc1 [Compound 1359]	97	–	–	–	60
COc1ccc(S(=O)(=O)N2CCN(c3nc(NCCN(C)C)cc(Nc4ccc(C)cc4)n3)CC2)cc1 [Compound 1251]	–	–	56	60	–
COC(=O)c1ccc(S(=O)(=O)N2CCN(c3nc(C)cc(Nc4ccc(F)cc4)n3)CC2)cc1 [Compound 1382, methyl 4-((4-(4-((4-fluorophenyl)amino)-6-methylpyrimidin-2-yl)piperazin-1-yl)sulfonyl) benzoate]	107	34	–	–	–
COc1ccc(S(=O)(=O)N2CCN(c3nc(C)cc(Nc4ncc(C)cn4)n3)CC2)cc1 [Compound 1261]	–	–	98	87	–
COc1cccc(S(=O)(=O)N2CCN(c3cccc(Nc4ccc(C)cc4)n3)CC2)c1 [Compound 1168]	–	–	100	51	–
O=S(=O)(c1ccc(OC(F)(F)F)cc1)N1CCN(c2nc(Nc3nccs3)cc(C(F)(F)F)n2)CC1 [Compound 1418, N-(2-(4-((4-(trifluoromethoxy)phenyl)sulfonyl)piperazin-1-yl)-6-(trifluoromethyl)pyrimidin-4-yl) thiazol-2-amine]	100	120	–	–	–
CCOc1ccc(S(=O)(=O)N2CCN(c3nc(Nc4ccc(C#N)cc4)cc(-c4nccs4)n3)CC2)cc1 [Compound 1353]	107	7	–	–	–
O=C(O)c1ccc(S(=O)(=O)N2CCN(c3nc(Nc4ccc(F)cc4)cc(C(F)(F)F)n3)CC2)cc1 [Compound 1388, 4-((4-(4-((4-fluorophenyl)amino)-6-(trifluoromethyl)pyrimidin-2-yl)piperazin-1-yl)sulfonyl) benzoic acid]	106	15	–	–	–
Cc1cc(Nc2ccc(F)cc2)nc(N2CCN(S(=O)(=O)c3cccc(CC(=O)O)c3)CC2)n1 [Compound 1411, 2-(3-((4-(4-((4-fluorophenyl)amino)-6-methylpyrimidin-2-yl)piperazin-1-yl)sulfonyl)phenyl) acetic acid]	102	117	–	–	–
COc1ccc(S(=O)(=O)N2CCN(c3nc(Nc4ccc(C)cc4)cc(-n4cnnc4)n3)CC2)cc1 [Compound 1282, 2-(4-((4-methoxyphenyl)sulfonyl)piperazin-1-yl)-N-(p-tolyl)-6-(4H-1,2,4-triazol-4-yl) pyrimidin-4-amine]	–	–	99	22	–
O=S(=O)(c1ccc(F)cc1)N1CCN(c2nc(Nc3ccc(F)cc3)cc(C(F)(F)F)n2)CC1 [Compound 1345]	77	14	–	–	–
Cc1cc(Nc2ccc(F)cc2)nc(N2CCN(S(=O)(=O)c3ccc(F)cc3)CC2)n1 [Compound 1347]	7	2	–	–	–
CN(C)c1cc(Oc2ccc(F)cc2)nc(N2CCN(S(=O)(=O)c3ccc(C(F)(F)F)cc3)CC2)n1 [Compound 1298]	–	–	97	100	–
CCCCOc1ccc(S(=O)(=O)N2CCN(c3nc(Nc4ccc(C#N)cc4)cc(C(F)(F)F)n3)CC2)cc1 [Compound 1334]	102	2	–	–	–
